{
  "source": "paper PMC6270635",
  "about": "“Phenolic Esters of O-Desmethylvenlafaxine with Improved Oral Bioavailability and Brain Uptake” (Molecules, 2013)",
  "data": [
    {"details": "not given", "units": {"melting point": "°C"}, "values": [
      {"smiles": "CN(C)CC(c1ccc(OC(=O)C(C)(C)C)cc1)C1(O)CCCCC1", "note": "(stereo not shown) [1a, 4-(2-(Dimethylamino)-1-(1-hydroxycyclohexyl)ethyl)phenyl pivalate]", "melting point": "131 to 133"},
      {"smiles": "CN(C)CC(c1ccc(OC(=O)C2CCCCC2)cc1)C1(O)CCCCC1", "note": "(stereo not shown) [1b, 4-(2-(Dimethylamino)-1-(1-hydroxycyclohexyl)ethyl)phenyl cyclohexanecarboxylate]", "melting point": "122 to 124"},
      {"smiles": "CC1CCC(C(=O)Oc2ccc(C(CN(C)C)C3(O)CCCCC3)cc2)CC1", "note": "(stereo not shown) [1c, 4-(2-(Dimethylamino)-1-(1-hydroxycyclohexyl)ethyl)phenyl 4-methylcyclohexanecarboxylate]", "melting point": "157 to 159"},
      {"smiles": "CC(C)C1CCC(C(=O)Oc2ccc(C(CN(C)C)C3(O)CCCCC3)cc2)CC1", "note": "(stereo not shown) [1d, 4-(2-(Dimethylamino)-1-(1-hydroxycyclohexyl)ethyl)phenyl 4-isopropylcyclohexanecarboxylate]", "melting point": "149 to 152"},
      {"smiles": "CN(C)CC(c1ccc(OC(=O)C2CCCCCC2)cc1)C1(O)CCCCC1", "note": "(stereo not shown) [1e, 4-(2-(Dimethylamino)-1-(1-hydroxycyclohexyl)ethyl)phenyl cycloheptanecarboxylate]", "melting point": "110 to 112"},
      {"smiles": "CN(C)CC(c1ccc(OC(=O)c2ccoc2)cc1)C1(O)CCCCC1", "note": "(stereo not shown) [1g, 4-(2-(Dimethylamino)-1-(1-hydroxycyclohexyl)ethyl)phenyl furan-3-carboxylate]", "melting point": "159 to 162"},
      {"smiles": "CN(C)CC(c1ccc(OC(=O)c2ccsc2)cc1)C1(O)CCCCC1", "note": "(stereo not shown) [1h, 4-(2-(Dimethylamino)-1-(1-hydroxycyclohexyl)ethyl)phenyl thiophene-3-carboxylate]", "melting point": "168 to 172"},
      {"smiles": "CN(C)CC(c1ccc(OC(=O)c2cccnc2)cc1)C1(O)CCCCC1", "note": "(stereo not shown) [1i, 4-(2-(Dimethylamino)-1-(1-hydroxycyclohexyl)ethyl)phenyl nicotinate]", "melting point": "180 to 182"},
      {"smiles": "COc1ccc(C(=O)Oc2ccc(C(CN(C)C)C3(O)CCCCC3)cc2)cc1", "note": "(stereo not shown) [1k, 4-(2-(Dimethylamino)-1-(1-hydroxycyclohexyl)ethyl)phenyl 4-methoxybenzoate]", "melting point": "133 to 137"},
      {"smiles": "CN(C)CC(c1ccc(OC(=O)CCc2ccccc2)cc1)C1(O)CCCCC1", "note": "(stereo not shown) [1l, 4-(2-(Dimethylamino)-1-(1-hydroxycyclohexyl)ethyl)phenyl 3-phenylpropanoate]", "melting point": "124 to 127"},
      {"smiles": "CN(C)CC(c1ccc(OC(=O)C=Cc2ccccc2)cc1)C1(O)CCCCC1", "note": "(stereo not shown) [1m, 4-(2-(Dimethylamino)-1-(1-hydroxycyclohexyl)ethyl)phenyl cinnamate]", "melting point": "118 to 122"},
      {"smiles": "CN(C)CC(c1ccc(OC(=O)c2ccc3c(c2)OCO3)cc1)C1(O)CCCCC1", "note": "(stereo not shown) [1n, 4-(2-(Dimethylamino)-1-(1-hydroxycyclohexyl)ethyl)phenyl benzo[d][1,3]dioxole-5-carboxylate]", "melting point": "154 to 157"},
      {"smiles": "CN(C)CC(c1ccc(OC(=O)c2ccc3c(c2)OCCO3)cc1)C1(O)CCCCC1", "note": "(stereo not shown) [1o, 4-(2-(Dimethylamino)-1-(1-hydroxycyclohexyl)ethyl)phenyl 2,3-dihydrobenzo[b][1,4]dioxine-6-carboxylate]", "melting point": "159 to 162"}
    ]},
    {"details": "cited from earlier work", "values": [
      {"smiles": "CN(C)CC(c1ccc(O)cc1)C1(O)CCCCC1", "note": "(stereo not shown) [ODV, O-Desmethylvenlafaxine]", "bioavailability in humans": "ca. 80%"}
    ]},
    {"design": "method as in PMID 23517291, PMID 23334675", "details": "ODV as the succinate salt; cited from earlier work", "units": {"minimum effective dose": "mg/day"}, "values": [
      {"smiles": "CN(C)CC(c1ccc(O)cc1)C1(O)CCCCC1", "note": "(stereo not shown) [ODV, O-Desmethylvenlafaxine]", "minimum effective dose": 50}
    ]},
    {"design": "method as in PMID 21925241", "details": "rat, oral administration; cited from earlier work", "values": [
      {"smiles": "COc1ccc(C(=O)Oc2ccc(C(CN(C)C)C3(O)CCCCC3)cc2)cc1", "note": "(stereo not shown) [1k, 4-(2-(Dimethylamino)-1-(1-hydroxycyclohexyl)ethyl)phenyl 4-methoxybenzoate]", "relative bioavailability compared with ODV": "higher relative bioavailability than ODV"}
    ]}
  ]
}
